Data set [1] relates to Canidae. The note with it: repeat dose other; oral; Dog Other.
Data set [2] concerns Rattus norvegicus. The note with it: M/F.
Data set [3] deals with Rattus norvegicus. The note with it: chronic; duration: 2 years; oral; drinking water; Gastrointestinal tract: Lesions.
The subject of data set [4] is Rattus norvegicus. Conditions: oral; for NOEL: subchronic, gavage, Fischer 344, Deaths + Body Weight Changes: decrease + Hematology: Hct increase, RBC increase, WBC increase, Hgb increase, Ret increase, Nucleated ….
Data set [5] deals with Rattus norvegicus. The note with it: M/F; for NOAEL: Wistar, gastrointestinal.
Data set [6] concerns Monkey. The note with it: chronic; duration: 26 weeks; inhalation; M; Cynomolgus; respiratory.
In data set [7] the test system is Homo sapiens. The note with it: clinical, inhalation, M/F, respiratory.
Data set [8] concerns Peromyscus polionotus. Conditions: oral.
Data set [9] has as its system Neovison sp. Conditions: repeat dose other; oral; Mink.
Data set [10] has as its system Phasianus colchicus. The note with it: oral.
For data set [11], the system named is Monkey. The note with it: chronic; oral; F; decreased antibody (IgG and IgM) response to sheep erythrocytes + Ocular exudate, inflamed and prominent Meibomian glands, distorted growth ….
In data set [12] the test system is Monkey. The note with it: chronic; duration: 5 years; oral; capsule; Immune system: Toxicity.
The subject of data set [13] is Mus musculus. Conditions: chronic; duration: 25 months; oral; diet; M/F; Swiss; Histopathology in lungs.
For data set [14], the system named is Rattus norvegicus. The experiment in a line: FEL; higher = less toxic. Conditions: M/F.
Data set [15] deals with Rattus norvegicus. The note with it: repeat dose other; oral.
Data set [16] concerns Oryctolagus sp. The note with it: developmental; oral; F; excessive loss of litters.
The test system of data set [17] is Oryctolagus sp. The note with it: reproduction developmental; duration: 13 days; oral; gavage; Reproduction: Loss of litters.
In data set [18] the test system is Rattus norvegicus. Conditions: for LEL: uterotrophic, Active.
Data set [19] concerns Mus musculus. Conditions: uterotrophic, Active.
In data set [20] the test system is Canidae. Conditions: subchronic; duration: 13 weeks; oral; capsule; M/F; Beagle; neurological.
Data set [21] deals with Rattus norvegicus. Description: LD40; higher = less toxic. Conditions: acute; oral; gavage; Sprague-Dawley.
The subject of data set [22] is Canidae. The note with it: chronic; oral; diet; M/F; Dog Other; rbc and plasma cholinesterase inhibition, and testicular and uterine effects.
Data set [23] relates to Canidae. The note with it: chronic; duration: 1 years; oral; diet; Dog Other; Blood: Cholinesterase inhibition + Testis: Effects + Uterus: Effects.
For data set [24], the system named is Rattus norvegicus. The note with it: for LD50 / NOAEL: oral.
In data set [25] the test system is Oryctolagus sp. Conditions: New Zealand.
[26] abbreviates: chronic, duration: 2 years, oral, reduced weight gain, histopathology: rats.
Setting [27] is: chronic, oral, gavage, reduced survival.

Values after ≈ are worked out from the molar mass of the structure shown. Values joined by “and” are separate entries in the source; they are usually repeats but may differ in a detail not shown here. Identical values can stand only once. A value given as a limit tells only on which side of the number the result lay.

The source of these data is EPA's ToxValDB 9.5.

For the compound `C=O` [Formaldehyde], the NOAEL in data set [1] came to 9.4 mg/kg-day; in [2] (setting [26]), 15 mg/kg-day; in data set [3], 15 mg/kg-day; in [4] (short-term, duration: 28 days, drinking water, M/F, Wistar, Clinical Observation: Yellowish discoloration of fur + Food Consumption: decrease + Water Consumption: decrease + Blood Chemistry: TP …), 25 mg/kg-day; in data set [5] (chronic, duration: 2 years, oral) it was 15 mg/kg-day; in data set [5] (short-term, duration: 4 weeks, oral, drinking water), 25 mg/kg-day. The NOAEL in data set [6] worked out at 1.2 mg/m3. The LOAEL in data set [2] (setting [26]) was 82 mg/kg-day; in data set [7] (duration: 2 hours), 0.491 mg/m3.

As for `Clc1cccc(-c2ccc(Cl)c(Cl)c2Cl)c1Cl` [Aroclor 1254], the LOAEL amounted to 0.68 mg/kg-day in data set [8]; 0.69 mg/kg-day in data set [9]; 1.8 mg/kg-day in data set [10]; 0.005 mg/kg-day in data set [11]; 0.005 mg/kg-day in data set [12]. Moreover, the NOAEL in data set [8] is 0.068 mg/kg-day; in data set [9], 0.14 mg/kg-day; in [10] it was 0.18 mg/kg-day.

In data set [13], `N#CC(c1ccc(Cl)cc1)c1c(Cl)cc(-n2ncc(=O)[nH]c2=O)cc1Cl` (centres undefined) [Diclazuril] came in with an LOEL of 11 mg/kg-day and an NOEL of 3 mg/kg-day.

In [14] (setting [27]), `C=CC=O` [Acrolein] came in with an FEL of 0.5 mg/kg-day. In data set [2] (setting [27]), the NOAEL came out at 0.05 mg/kg-day. Moreover, the LOAEL is 0.9 mg/m3 in data set [2] (subchronic, inhalation, nasal lesions); 0.917 mg/m3 in data set [5] (subchronic, duration: 13 weeks, inhalation, respiratory); 0.688 mg/m3 in data set [7] (duration: 60 minutes). The NOEL in data set [4] (F) is below 0.75 mg/kg-day; in data set [4] (M), 1.25 mg/kg-day.

`COc1ccc(C(c2ccc(OC)cc2)C(Cl)(Cl)Cl)cc1` [Methoxychlor]: the LOAEL worked out at 8 mg/kg-day in data set [15] and 5 mg/kg-day in data set [5] (reproduction developmental, duration: 364 days, oral, gavage, Sprague-Dawley, reproductive). Also, in [15], the NOAEL turned out to be 4 mg/kg-day. Also, the LEL in data set [16] was 35.5 mg/kg-day; in data set [18] (duration: 1 days, injection, intraperitoneal) it was 10 mg and 5 mg/day; in [18] (duration: 1 days, oral), 125 mg/kg-day; in [18] (duration: 4 days, injection, intraperitoneal), 0.75 mg/kg-day; in data set [18] (duration: 7 days, injection, subcutaneous), 100 mg/kg-day; in data set [18] (duration: 7 days, oral), 50 mg/kg-day. The LEL is 500 ppm in data set [18] (duration: 42 days, oral, diet); 1500 ppm in data set [18] (duration: 98 days, oral, diet); 1 mg/day in [19] (duration: 3 days, oral); 100 mg/kg-day in data set [19] (duration: 4 days, injection, subcutaneous); 10 mg/kg-day in data set [19] (duration: 5 days, injection, subcutaneous). In addition, the NOEL in data set [16] and in data set [17] was 5.01 mg/kg-day each time.

Turning to `C=C1C(CCl)(CCl)C2(Cl)C(Cl)C(Cl)C1(Cl)C2(Cl)Cl` (centres undefined) [Toxaphene], the results for the NOAEL in data set [15] and in [20] were 8 mg/kg-day and 5 mg/kg-day, respectively.

`CNC(=O)Oc1cccc2c1OC(C)(C)C2` [Carbofuran] gave an LD40 in data set [21] of 5.6 mg/kg. In data set [22], this compound had an LEL of 12.5 mg/kg-day. In addition, the NOEL in data set [22] stood at 0.5 mg/kg-day; in [23] it was 0.5 mg/kg-day; in data set [18] (Hershberger, duration: 10 days, oral, gavage, Sprague-Dawley, inactive + Negative + Negative + neither + negative), 0.3 mg/kg-day. The compound also came in with an LC50 in [24] (acute, inhalation, particle, Sprague-Dawley) of 0.05 µg/mL (≈ 0.226 µM). For the same compound, the LD50 in data set [24] (acute, diet, Sprague-Dawley) is 5.3 mg/kg and 13.2 mg/kg; in data set [24] (acute, gavage, Sprague-Dawley) it was 7 mg/kg and 8.8 mg/kg and 13.3 mg/kg; in [25] (acute, dermal, semiocclusive), below 2000 mg/kg. Further, the NOAEL in data set [24] (developmental, duration: 14 days, diet, Sprague-Dawley) is 160 ppm; in data set [24] (reproduction developmental, duration: 14 days, diet, F, Sprague-Dawley), 20 ppm; in data set [24] (reproduction developmental, diet, Crl:CD(SD)) it was 20 ppm; in data set [25] (reproduction developmental, oral, gavage, F) it was at least 2 mg/kg-day.

For the compound `CCN(CC)CC` [Triethylamine], in data set [14] (short-term, duration: 10 days, inhalation, inflammation of the nasal passage), the FEL is 4140 mg/m3. The compound also gave an NOAEL in [2] (chronic, duration: 28 weeks, inhalation, no effects) of 1020 mg/m3.
